Laboratory results: ChEMBL document CHEMBL4359869, “A new GSH-responsive prodrug of 5-aminolevulinic acid for photodiagnosis and photodynamic therapy of tumors” (Eur J Med Chem, 2019)
pIC50: −log10 of the molar value. Blank lines part the entries; values can stand above or below the compound they belong to. Active and inactive are the calls of the source. The calls are words filed in the database; no cut-off is given here.

Legend:
HeLa [1] = assay: Cytotoxicity against human HeLa cells assessed as cell viability at 10 to 1000 uM incubated for 4 hrs followed by LED light array irradiation followed by further incubation for 24 hrs by MTT assay; format: functional, cell-based
A549 [2] = assay: Cytotoxicity against human A549 cells assessed as reduction in cell viability incubated for 4 hrs followed by LED light array irradiation followed by further incubation for 24 hrs by MTT assay; format: functional, cell-based
HCT-116 [3] = assay: Cytotoxicity against human HCT116 cells assessed as reduction in cell viability incubated for 4 hrs followed by LED light array irradiation followed by further incubation for 24 hrs by MTT assay; format: functional, cell-based
[4] = Prodrug activation in human HeLa cells assessed as increase in GSH-mediated PpIX production at 100 uM incubated for 4 hrs by fluorescence imaging analysis; format: cell-based
[5] = Prodrug activation in human HeLa cells assessed as GSH-mediated PpIX production at 10 to 1000 uM incubated for 4 hrs by fluorescence based assay; format: cell-based
A-375 [6] = assay: Cytotoxicity against human A375 cells assessed as reduction in cell viability incubated for 4 hrs followed by LED light array irradiation followed by further incubation for 24 hrs by MTT assay; format: functional, cell-based
HeLa [7] = assay: Cytotoxicity against human HeLa cells assessed as cell viability at 10 to 1000 uM incubated for 4 hrs measured under dark conditions by MTT assay; format: cell-based
[8] = Chemical stability of the compound in buffer at 1M at pH 9 by HPLC analysis; format: physicochemical
HeLa [9] = assay: Photosensitization activity against human HeLa cells assessed as reduction in cell viability incubated for 4 hrs followed by LED light array irradiation followed by further incubation for 24 hrs by MTT assay; format: functional, cell-based; conditions: light or radiation study
[10] = n-octanol/water partition coefficient, log P of the compound at 1M incubated for 0.5 hrs by HPLC analysis; format: physicochemical
[11] = Prodrug activation in human HCT116 cells assessed as increase in GSH-mediated PpIX production at 100 to 300 uM incubated for 4 hrs by fluorescence based assay; format: cell-based; conditions: hct-116, 4 h
[12] = Chemical stability of the compound in buffer at 1M at pH 7.4 by HPLC analysis; format: physicochemical
HeLa [13] = assay: Photosensitization activity against human HeLa cells assessed as cell viability at 100 uM incubated for 4 hrs followed by LED light array irradiation followed by further incubation for 24 hrs by MTT assay; format: functional
A549 [14] = assay: Photosensitization activity against human A549 cells assessed as cell viability at 100 uM incubated for 4 hrs followed by LED light array irradiation followed by further incubation for 24 hrs by MTT assay; format: functional; conditions: A549, light or radiation study, read-out: Activity
[15] = Prodrug activation in human A549 cells assessed as increase in GSH-mediated PpIX production at 100 to 300 uM incubated for 4 hrs by fluorescence based assay; format: cell-based; conditions: a549, 4 h
[16] = Prodrug activation in human HeLa cells assessed as increase in GSH-mediated PpIX production at 10 to 300 uM incubated for 4 hrs by fluorescence based assay; format: cell-based
A-375 [17] = assay: Photosensitization activity against human A375 cells assessed as cell viability at 100 uM incubated for 4 hrs followed by LED light array irradiation followed by further incubation for 24 hrs by MTT assay; format: functional; conditions: A-375, light or radiation study, read-out: Activity
HCT-116 [18] = assay: Photosensitization activity against human HCT116 cells assessed as cell viability at 100 uM incubated for 4 hrs followed by LED light array irradiation followed by further incubation for 24 hrs by MTT assay; format: functional; conditions: HCT-116, light or radiation study, read-out: Activity
[19] = Prodrug activation in human A375 cells assessed as increase in GSH-mediated PpIX production at 100 to 300 uM incubated for 4 hrs by fluorescence based assay; format: cell-based; conditions: a-375, 4 h
[20] = Chemical stability of the compound in buffer at 1M at pH 4 by HPLC analysis; format: physicochemical
[21] = Prodrug activation in human HeLa cells assessed as increase in GSH-mediated PpIX production at 300 uM incubated for 4 hrs by fluorescence based assay; format: cell-based
HeLa [22] = assay: Cytotoxicity against human HeLa cells assessed as reduction in cell viability at 300 to 1000 uM incubated for 4 hrs measured under dark conditions by MTT assay; format: cell-based
[23] = Prodrug activation in human HeLa cells assessed as increase in GSH-mediated PpIX production at 100 uM incubated for 4 hrs by fluorescence based assay relative to 5-ALA; format: cell-based
HeLa [24] = assay: Potency index, ratio of 5-ALA-OMe IC50 to compound IC50 for photosensitization activity against human HeLa cells by MTT assay; format: functional
[25] = Prodrug activation in PBS buffer assessed as GSH-mediated cleaved product C-SA formation at 0.5 mM incubated for 1 hr measured at 37 degC and pH 7.4 in presence of 10 mM GSH by ESI-MS spectrometry; conditions: pH 7.4, 1 h, 500 µM
[26] = Prodrug activation in human HeLa cells assessed as increase in GSH-mediated PpIX production at 100 uM incubated for 4 hrs by fluorescence based assay relative to 5-ALA-OMe; format: cell-based
[27] = Prodrug activation in human HCT116 cells assessed as increase in GSH-mediated PpIX production at 100 uM incubated for 4 hrs by fluorescence based assay relative to 5-ALA-OMe; format: cell-based; conditions: hct-116, 4 h
[28] = Prodrug activation in human A549 cells assessed as increase in GSH-mediated PpIX production at 500 to 1000 uM incubated for 4 hrs by fluorescence based assay; format: cell-based; conditions: a549, 4 h
[29] = Prodrug activation in human A549 cells assessed as increase in GSH-mediated PpIX production at 100 uM incubated for 4 hrs by fluorescence based assay relative to 5-ALA-OMe; format: cell-based; conditions: a549, 4 h
[30] = Prodrug activation in human HeLa cells assessed as increase in GSH-mediated PpIX production at 100 uM incubated for 4 hrs pretreated for 1 hr with 1 mM intracellular GSH depletor, DEM by fluorescence imaging analysis; format: cell-based
[31] = Prodrug activation in human A549 cells assessed as increase in GSH-mediated PpIX production at 100 uM incubated for 4 hrs by fluorescence based assay relative to 5-ALA; format: cell-based; conditions: a549, 4 h
HeLa [32] = assay: Potency index, ratio of 5-ALA IC50 to compound IC50 for photosensitization activity against human HeLa cells by MTT assay; format: functional
[33] = Chemical stability of the compound in buffer at 1 M at pH 4 to 9 measured after 24 hrs by HPLC analysis; format: physicochemical; conditions: pH 4, 24 h
[34] = Prodrug activation in human HeLa cells assessed as increase in GSH-mediated PpIX production at 300 to 1000 uM incubated for 4 hrs by fluorescence based assay; format: cell-based
[35] = Prodrug activation in human HCT116 cells assessed as increase in GSH-mediated PpIX production at 100 uM incubated for 4 hrs by fluorescence based assay relative to 5-ALA; format: cell-based; conditions: hct-116, 4 h
[36] = Prodrug activation in human A375 cells assessed as increase in GSH-mediated PpIX production at 100 uM incubated for 4 hrs by fluorescence based assay relative to 5-ALA; format: cell-based; conditions: a-375, 4 h
HCT-116 [37] = assay: Cytotoxicity against human HCT116 cells assessed as reduction in cell viability at 500 to 1000 uM incubated for 4 hrs measured under dark conditions by MTT assay; format: cell-based; conditions: hct-116, 4 h
A-375 [38] = assay: Cytotoxicity against human A375 cells assessed as reduction in cell viability at 500 to 1000 uM incubated for 4 hrs measured under dark conditions by MTT assay; format: cell-based; conditions: a-375, 4 h
[39] = Prodrug activation in human A375 cells assessed as increase in GSH-mediated PpIX production at 100 uM incubated for 4 hrs by fluorescence based assay relative to 5-ALA-OMe; format: cell-based; conditions: a-375, 4 h
[40] = Prodrug activation in human A375 cells assessed as increase in GSH-mediated PpIX production at 500 to 1000 uM incubated for 4 hrs by fluorescence based assay; format: cell-based; conditions: a-375, 4 h
A549 [41] = assay: Cytotoxicity against human A549 cells assessed as reduction in cell viability at 500 to 1000 uM incubated for 4 hrs measured under dark conditions by MTT assay; format: cell-based; conditions: a549, 4 h
[42] = Prodrug activation in human HCT116 cells assessed as increase in GSH-mediated PpIX production at 500 to 1000 uM incubated for 4 hrs by fluorescence based assay; format: cell-based; conditions: hct-116, 4 h
HeLa [43] = assay: Cytotoxicity against human HeLa cells assessed as reduction in cell viability at 10 to 300 uM incubated for 4 hrs measured under dark conditions by MTT assay; format: cell-based
[44] = Prodrug activation in human HeLa cells assessed as increase in GSH-mediated PpIX production at 1000 uM incubated for 4 hrs by fluorescence based assay; format: cell-based

- Drug metabolism [4]: Metabolite_Notdetected
- Drug metabolism [5]: Metabolite_Notdetected
SMILES: COC(=O)CCC(=O)CNC(=O)OCCCCCCOC(=O)NCC(=O)CCC(=O)OC
- inhibition (HeLa [1]): inactive
- inhibition (A549 [2]): inactive
- inhibition (HCT-116 [3]): inactive
- inhibition (A-375 [6]): inactive
- Activity (HeLa [7]): Non-Toxic

- Stability [8]: Unstable
- logP at 0.5 h [10]: -1.52
- Drug metabolism [11]: Metabolite_Detected
- Stability [12]: Unstable
- Drug metabolism [15]: Metabolite_Detected
- Drug metabolism [16]: Metabolite_Detected
- Drug metabolism [4]: Metabolite_Notdetected
- Drug metabolism [19]: Metabolite_Detected
- Stability [20]: Stable
- Drug metabolism [21]: Metabolite_Detected
SMILES: NCC(=O)CCC(=O)O [AMINOLEVULINIC ACID]
- pIC50 (HeLa [9]): 3.64
- Activity (HeLa [13]): inactive
- viability at 100 µM (A549 [14]): > 80%
- viability at 100 µM (A-375 [17]): 60%
- viability at 100 µM (HCT-116 [18]): > 80%
- Activity (HeLa [7]): Non-Toxic

- Stability [8]: Stable
- fold change (FC) [23]: 20
- logP at 0.5 h [10]: 0.84
- Drug metabolism [11]: Metabolite_Detected
- Drug metabolism [25]: Metabolite_Detected
- fold change (FC) [26]: 70
- fold change (FC) [27]: 28
- Drug metabolism [28]: Metabolite_Detected
- Stability [12]: Stable
- fold change (FC) [29]: 84
- Drug metabolism [30]: Metabolite_Detected
- fold change (FC) [31]: 3 to 40
- Drug metabolism [15]: Metabolite_Detected
- Stability [33]: Stable
- Drug metabolism [34]: Metabolite_Detected
- Drug metabolism [16]: Metabolite_Detected
- fold change (FC) [35]: 3 to 40
- fold change (FC) [36]: 3 to 40
- Drug metabolism [4]: Metabolite_Detected
- fold change (FC) [39]: 43
- Drug metabolism [40]: Metabolite_Detected
- Drug metabolism [19]: Metabolite_Detected
- Stability [20]: Stable
- Drug metabolism [42]: Metabolite_Detected
SMILES: COC(=O)CCC(=O)CNC(=O)OCCSSCCOC(=O)NCC(=O)CCC(=O)OC
- Activity (HeLa [22]): Toxic
- pIC50 (HeLa [9]): 4.21
- Ratio IC50 (HeLa [24]): 12
- viability at 100 µM (HeLa [13]; light or radiation study, read-out: Activity): 30%
- viability at 100 µM (A549 [14]): 16%
- Ratio IC50 (HeLa [32]): 4
- viability at 100 µM (A-375 [17]): 14%
- viability at 100 µM (HCT-116 [18]): 13%
- Activity (HCT-116 [37]): Toxic
- Activity (A-375 [38]): Toxic
- Activity (A549 [41]): Toxic
- Activity (HeLa [43]): Toxic

- Drug metabolism [44]: Metabolite_Detected
- Stability [8]: Unstable
- logP at 0.5 h [10]: -0.94
- Drug metabolism [11]: Metabolite_Detected
- Stability [12]: Unstable
- Drug metabolism [15]: Metabolite_Detected
- Drug metabolism [16]: Metabolite_Detected
- Drug metabolism [4]: Metabolite_Notdetected
- Drug metabolism [19]: Metabolite_Detected
- Stability [20]: Stable
SMILES: COC(=O)CCC(=O)CN [METHYL AMINOLEVULINATE]
- pIC50 (HeLa [9]): 3.12
- Activity (HeLa [13]): inactive
- viability at 100 µM (A549 [14]): > 80%
- viability at 100 µM (A-375 [17]): > 80%
- viability at 100 µM (HCT-116 [18]): > 80%
- Activity (HeLa [7]): Non-Toxic
